Test results: patent publication US20160213742A1, “COMPOSITIONS AND METHODS FOR THE TREATMENT OF FUNGAL INFECTIONS” (priority 2013, published 2016)
Entries after “also recorded” stand apart in the source; their conditions may differ.

Experiments:
human neutrophils = test: Microfluidic Neutrophil Chemotaxis assay; type: cell-based; conditions: for neutrophil (NF) migration counts (FIG. 1): 4 hour timepoint, in the presence of Aspergillus fumigatus, Compound 1, Compound 11, caspofungin acetate 10 nM, fMLP 100 nM, relative to A. fumigatus alone
Text: Two layers of photoresist (SU8; […] The wafer with patterned photoresist was used as a mold to produce polydimethylsiloxane (PDMS) (Fisher Scientific) devices, which were then bonded to the base of glass-bottom 12- or 24-well plates, using an oxygen plasma machine (Nordson-March). De-identified, fresh human blood samples from healthy volunteers, aged 18 years and older, who were not receiving immunosuppressants, were purchased from Research Blood Components, LLC. Peripheral blood was drawn in tubes containing a final concentration of 5 mM EDTA (Vacutainer; Becton Dickinson) and processed within 2 h of blood collection. Using a sterile technique, neutrophils were isolated from whole blood using HetaSep followed by the EasySep Human Neutrophil Enrichment Kit (STEMCELL Technologies) following the manufacturer's protocol. The purity of neutrophils was assessed to be >98% using the Sysmex KX-21N Hematology Analyzer (Sysmex America, Inc.). White blood cells were isolated using Hetasep followed by a 5 min spin down and wash with 1×PBS. White blood cells were stained with Hoechst (32.4 μM) (Sigma) following the manufacture's protocols. The final aliquots of white blood cells were resuspended in RPMI plus 10% fetal bovine serum (FBS−stock 50 mL FBS/450 mL RPMI) (Sigma-Aldrich) at a concentration of 20,000 cells/2 μL and kept at 37° C. Cells were then immediately introduced into the microfluidic device for the chemotaxis and Aspergillus fumigatus killing assay. All experiments were repeated at least three times with neutrophils or white blood cells from three different healthy donors. Immediately after bonding to the well plate, donut-shaped devices were filled with Aspergillus fumigatus conidia at a concentration of 10^6 cells/mL with or without either Compound 1 or Compound 11 [10 nM], caspofungin acetate [10 nM] and/or a solution of the chemoattractant N-formyl-methionyl-leucyl-phenylalanine (fMLP) [100 nM](Sigma-Aldrich, St. Louis, Mo.). The device was then placed in a vacuum for 15 min. The solution filled all of the FCCs as the air was displaced. The devices were then vigorously washed five times with 1×PBS to remove any residual Aspergillus fumigatus conidia, drug or chemoattractant that was outside of the FCCs. The device was then submerged in 0.5 mL of cell media. Neutrophils or white blood cells (20,000 cells/2 μL) were then pipetted into the cell loading chamber (CLC) using a gel-loading pipette tip. […] Image analysis of cell migration counts and fungi growth was analyzed by hand using Image J software. Neutrophil counts per chamber were counted every 15 min for the first 2 hours of the experiment and then every hour for the remaining 16 hours. Percentage of conidia that converted to hyphal growth was measured by counting conidia loaded per chamber before neutrophils or WBCs were loaded into the chamber and counting numbers of these conidia that grew hyphae by 18 hours. Fungal growth velocity was calculated using Image J. The 16 chambers in each device (n=3) were analyzed for at least three different healthy donors.

[1] = test system: Aspergillus fumigatus strain AF293; test: Microfluidic Aspergillus fumigatus Killing Assay with human neutrophils; type: cell-based; conditions: for percent hyphal growth compared to remaining conidia (FIG. 2): with added neutrophils (NFs), Compound 1, Compound 11, caspofungin acetate 10 nM, fMLP 100 nM, hyphae by 18 hours; for timecourse of A. fumigatus (Af) growth in FCCs (FIG. 4): in presence of PMNs, three healthy blood donors, t=0, 8, and 16 hours
Text: Microfluidic devices used to measure leukocyte migration in response to Aspergillus fumigatus with or without drug (Compound 1 or Compound 11), antifungal control (caspofungin acetate) and/or chemoattractant (fMLP) were manufactured using known microfabrication techniques. Two layers of photoresist (SU8; Microchem), the first one 10 μm thin (corresponding to the migration channels) and the second one 70 μm thick, corresponding to the focal chemotactic chambers (FCCs) were patterned on one silicon wafer sequentially using two photolithographic masks and processing cycles according to the instructions from the manufacturer. The wafer with patterned photoresist was used as a mold to produce polydimethylsiloxane (PDMS) (Fisher Scientific) devices, which were then bonded to the base of glass-bottom 12- or 24-well plates, using an oxygen plasma machine (Nordson-March).
Aspergillus fumigatus strain AF293 expressing either cytosolic red fluorescent protein (RFP) or green fluorescent protein (GFP) was grown on Sabouraud dextrose agar plates supplemented with 100 μg/mL ampicillin at 30° C. for 3-4 days. Conidia were harvested by gentle scraping followed by washing in ice-cold phosphate buffered saline (PBS) three times. Conidia were immediately used or stored at 4° C. for use within one week.
De-identified, fresh human blood samples from healthy volunteers, aged 18 years and older, who were not receiving immunosuppressants, were purchased from Research Blood Components, LLC. Peripheral blood was drawn in tubes containing a final concentration of 5 mM EDTA (Vacutainer; Becton Dickinson) and processed within 2 h of blood collection. Using a sterile technique, neutrophils were isolated from whole blood using HetaSep followed by the EasySep Human Neutrophil Enrichment Kit ([…] Technologies) following the manufacturer's protocol. The purity of neutrophils was assessed to be >98% using the Sysmex KX-21N Hematology Analyzer (Sysmex America, Inc.). White blood cells were isolated using Hetasep followed by a 5 min spin down and wash with 1×PBS. White blood cells were stained with Hoechst (32.4 μM) (Sigma) following the manufacture's protocols. The final aliquots of white blood cells were resuspended in RPMI plus 10% fetal bovine serum (FBS−stock 50 mL FBS/450 mL RPMI) (Sigma-Aldrich) at a concentration of 20,000 cells/2 μL and kept at 37° C. Cells were then immediately introduced into the microfluidic device for the chemotaxis and Aspergillus fumigatus killing assay. All experiments were repeated at least three times with neutrophils or white blood cells from three different healthy donors.
Immediately after bonding to the well plate, donut-shaped devices were filled with Aspergillus fumigatus conidia at a concentration of 10^6 cells/mL with or without either Compound 1 or Compound 11 [10 nM], caspofungin acetate [10 nM] and/or a solution of the chemoattractant N-formyl-methionyl-leucyl-phenylalanine (fMLP) [100 nM](Sigma-Aldrich, St. Louis, Mo.). The device was then placed in a vacuum for 15 min. The solution filled all of the FCCs as the air was displaced. The devices were then vigorously washed five times with 1×PBS to remove any residual Aspergillus fumigatus conidia, drug or chemoattractant that was outside of the FCCs. The device was then submerged in 0.5 mL of cell media. Neutrophils or white blood cells (20,000 cells/2 μL) were then pipetted into the cell loading chamber (CLC) using a gel-loading pipette tip. Neutrophil migration into the migration channel toward the FCC started immediately and was recorded using time-lapse imaging on a fully automated Nikon TiE microscope (10× magnification) with biochamber heated to 37° C. with 5% carbon dioxide gas. Image analysis of cell migration counts and fungi growth was analyzed by hand using Image J software.
Image analysis of cell migration counts and fungi growth was analyzed by hand using Image J software.

Compound	neutrophil (NF) migration counts (FIG. 1) (human neutrophils)	percent hyphal growth compared to remaining conidia (FIG. 2) [1]	timecourse of neutrophil (PMNs) migration in FCCs (FIG. 4) (human neutrophils; with A. fumigatus, three healthy blood donors, t=0, 8, and 16 hours)	timecourse of A. fumigatus (Af) growth in FCCs (FIG. 4) [1]
CC[C@H](C)C[C@H](C)CCCCCCCCC(=O)N[C@H]1C[C@@H](O)[C@@H](NCCN)NC(=O)[C@@H]2[C@@H](O)CCN2C(=O)[C@H]([C@H](O)CCNC(=O)[C@H](Cc2ccccc2)NC(=O)[C@H](CC(C)C)NC(=O)[C@H](CCSC)NC=O)NC(=O)[C@H]([C@H](O)[C@@H](O)c2ccc(O)cc2)NC(=O)[C@@H]2C[C@@H](O)CN2C(=O)[C@H]([C@@H](C)O)NC1=O [Compound 1]	increased NF migration	inhibition of Aspergillus fumigatus hyphal growth; also recorded: able to suppress hyphal growth		
CC[C@H](C)C[C@H](C)CCCCCCCCC(=O)N[C@H]1C[C@@H](O)[C@@H](OCCN)NC(=O)[C@@H]2[C@@H](O)CCN2C(=O)[C@H]([C@H](O)CCNC(=O)[C@H](Cc2ccccc2)NC(=O)[C@H](CC(C)C)NC(=O)[C@H](CCSC)NC=O)NC(=O)[C@H]([C@H](O)[C@@H](O)c2ccc(O)cc2)NC(=O)[C@@H]2C[C@@H](O)CN2C(=O)[C@H]([C@@H](C)O)NC1=O [Compound 11]	increased NF migration	inhibition of Aspergillus fumigatus hyphal growth; also recorded: able to suppress hyphal growth	migration of PMNs	inhibition of growth of Af
caspofungin acetate [reference compound]	did not give increased NF migration			growth of Af
